Data from ChEMBL document CHEMBL1158865, “Mueggelone, a novel inhibitor of fish development from the fresh water cyanobacterium Aphanizomenon flos-aquae” (1997).
Active and inactive are the calls of the source. No cut-off for these calls is given here.

Assays:
[1] = species: Danio rerio; test: Inhibition of larval development in zebra fish assessed as mortality at 10 ug/mL after 24 hrs; type: functional; design: scale not given: the % may be the effect or the level left
[2] = species: Danio rerio; test: Inhibition of larval development in zebra fish assessed as mortality at 10 ug/mL after 48 hrs; type: functional; design: scale not given: the % may be the effect or the level left
[3] = species: Danio rerio; test: Inhibition of larval development in zebra fish assessed as retardation of blood circulatory system development at 10 ug/mL after 24 hrs; type: functional, organism-based
[4] = species: Danio rerio; test: Inhibition of larval development in zebra fish assessed as retardation of blood circulatory system development at 10 ug/mL after 32 hrs; type: functional, organism-based
[5] = system: Danio rerio; test: Inhibition of larval development in zebra fish assessed as induction of edema in heart at 10 ug/mL after 3 days; type: functional, organism-based
[6] = species: Danio rerio; test: Inhibition of larval development in zebra fish assessed as induction of thrombosis in heart at 10 ug/mL after 3 days; type: functional, organism-based
[7] = species: Danio rerio; test: Inhibition of larval development in zebra fish at 1 ug/mL; type: functional, organism-based
[8] = system: Danio rerio; test: Inhibition of larval development in zebra fish assessed as induction of edema in heart at 100 ug/mL after 5 days; type: functional, organism-based
[9] = system: Danio rerio; test: Inhibition of larval development in zebra fish assessed as induction of edema in heart at 100 ug/mL after 3 days; type: functional, organism-based
[10] = species: Danio rerio; test: Inhibition of larval development in zebra fish assessed as tail bending at 100 ug/mL after 3 days; type: functional; design: scale not given: the % may be the effect or the level left
[11] = species: Danio rerio; test: Inhibition of larval development in zebra fish assessed as tail bending at 100 ug/mL after 5 days; type: functional, organism-based
[12] = species: Danio rerio; test: Inhibition of larval development in zebra fish at 10 ug/mL; type: functional, organism-based
[13] = species: Danio rerio; test: Inhibition of larval development in zebra fish assessed as effect on larval mortality at 10 ug/mL; type: functional, organism-based
[14] = species: Danio rerio; test: Inhibition of larval development in zebra fish assessed as effect on larval mortality at 100 ug/mL; type: functional, organism-based

| SMILES | Activity [1] [%] | Activity [2] [%] | Activity [3] | Activity [4] | Activity [5] | Activity [6] | Activity [7] | Activity [8] | Activity [9] | Activity [10] [%] | Activity [11] | Activity [12] | Activity [13] | Activity [14] |
| --- | --- | --- | --- | --- | --- | --- | --- | --- | --- | --- | --- | --- | --- | --- |
| CC/C=C\C[C@@H]1O[C@H]1/C=C/C1CCCCCCCC(=O)O1 (relative stereo) [MUEGGELONE] | 45 | 45 | Active | Active | Active | Active | inactive |  |  |  |  |  |  |  |
| C=C(C)[C@@H]1CC[C@]2(C)CC[C@]3(C)[C@H](CC[C@@H]4[C@@]5(C)CC[C@H](OC(C)=O)C(C)(C)[C@@H]5CC[C@]43C)[C@@H]12 [LUPENYL ACETATE] |  |  |  |  |  |  |  | Active | Active | 30 | Active | inactive | inactive | inactive |
